The values that follow come from patent USRE35044E, “Cyanine compounds” (Asahi Chemical Co., Ltd., priority 1987, dated 1995).

Data set [1] in a line: Absorption maximum and molar absorptivity in solution. It counts as physicochemical. More on the design: ε: unit not given here.
The nature of data set [2]: Test for solubility in solvent. The data set is classed as physicochemical. Here is the method:
Each of cyanine dyes as shown below in Table 2 was dissolved in methanol and the solubility was determined at room temperature with the results indicated below in Table 2.

Take `CCOc1cc(C)c2c(c1)C(C)(C)C(=CC=CC=CC1=[N+](CC)c3c(C)cc(OCC)cc3C1(C)C)N2CC` [Preparation Example 7]: the ε in data set [1] (dichloroethane) was 1.75×10^5.
With `CCOc1cc(OCC)c2c(c1)C(C)(C)C(=CC=CC=CC1=[N+](CC)c3c(OCC)cc(OCC)cc3C1(C)C)N2CC` [Preparation Example 2], in data set [1] (dichloromethane), the ε is 1.72×10^5.
Turning to `CCOc1ccc2c(c1)C(C)(C)C(=CC=CC=CC1=[N+](C)c3ccc(OCC)cc3C1(C)C)N2C` [Compound B], the “solubility in solvents (in words)” value in data set [2] was “not satisfactory in solubility”.
Still for that read-out and setting: as for `CCOc1ccc2c(c1)C(C)(C)C(=CC=CC=CC=CC1=[N+](C)c3ccc(OCC)cc3C1(C)C)N2C` [Compound A], the entry is “does not exhibit good solubility”.
In the case of `CCN1C(=CC=CC=CC2=[N+](CC)c3c(OC)cc(OC)cc3C2(C)C)C(C)(C)c2cc(OC)cc(OC)c21` [Preparation Example 1], in data set [1] (alcohol), the ε is 1.84×10^5 and the λmax stood at 693 nm.
